Data reported in patent US9358262B2, “Use of antioxidant-enriched fermented blueberry extracts in the treatment of diabetes” (priority 2003, dated 2016).
“Also recorded” adds a separate entry of the source.

Legend:
[1] = system: LPS/IFN-γ-activated RAW 264.7 gamma NO(−) macrophages; experiment: Inhibition of nitric oxide production (nitrite, Griess reaction) in activated macrophages; assay type: cell-based, mouse; details: for Nitrite: 24 h after LPS/IFN-γ; for inhibition at 63 µM: RAW264.7, 63 μM (μM GAE for juices); for inhibition at 125 µM: RAW264.7, 125 μM (μM GAE for juices); for inhibition at 250 µM: RAW264.7, 250 μM (μM GAE for juices); for inhibition at 500 µM: RAW264.7, 500 μM (μM GAE for juices); for Effect on NO production, in words: over the tested concentrations
Protocol: (§1) Cell culture. The mouse monocyte/macrophage cell line RAW 264.7 gamma NO(−) [American Type Culture Collection (ATCC)] was cultured in RPMI-1640 supplemented with 10% (v/v) heat-inactivated FBS, streptomycin ([…]) and penicillin (100 units/ml). All cultures were incubated at 37° C. in a humidified atmosphere with 5% CO2. Cell number was assessed by trypan blue dye exclusion on a Neubauer hemacytometer. Cells were grown to 90% confluence in sterile cell culture flasks and gently detached using a scraper (Fisher Scientific). For phenolic compound treatment tests, cells were cultured in triplicate in Costar flat-bottom cell culture plates (Corning Inc.). Cells were plated at a density of 6×10^5 cells/well in 24-well cell culture plates and grown for 1 h to allow them to attach to the plate. Compounds to be tested were initially dissolved in 10 μl of DMSO, and then RPMI was added to make solutions in a series of concentrations with a dilution factor of 2. The final concentrations of test compound that cells received were 16, 31, 63, 125, 250, and 500 μM, respectively. For berry juices, the final concentrations were 16, 31, 63, 125, 250 and 500 μM GAE, respectively. Cells were supplemented with the test compounds for 1 h before stimulation with 10 ng/ml lipopolysaccharide (LPS) and 10-50 units/ml interferon gamma (IFN-γ). The activated cells were incubated for 24 h and then supernatants were collected to determine nitrite concentration and/or stored at −80° C. for further use. Control cells were grown under identical conditions but were not exposed to the test compounds or LPS/IFN-γ.
Nitric Oxide (NO) Determination. Nitrite concentration was used as an indication of NO production. The procedure for NO determination was based on the Griess reaction. The assay was assessed as in the methods of Wang and Mazza (2002a, 2002b) for cell supernatants supplemented with phenolic compounds or berry juices. In brief, 100 μL of cell culture supernatant or sodium nitrite standard was mixed with an equal volume of Griess reagent [a mixture of 0.1% (w/v) N-(1-naphthyl)-ethylenediamine dihydrochloride and 1% (w/v) sulfanilamide in 5% (v/v) phosphoric acid, the two parts being mixed together within 1 h of use] using a 96-well plate. A set of parallel analyses was also conducted by applying only 100 μL of 2.5% (v/v) phosphoric acid instead of Griess reagent to each of 100 μL of cell supernatants or the mixture of standard sodium nitrite and cyanidin chloride. After 20 min at room temperature, the absorbance at 540 nm was measured using the microtitration reader. The net absorbance of the product of the Griess reaction was obtained by subtracting that of anthocyanins from the total. The absorbance was referred to a nitrite standard curve to determine the nitrite concentration in the supernatants.
Inhibition of Nitric Oxide Production. RAW 264.7 gamma NO(−) cell line was derived from the RAW 264.7 mouse monocyte/macrophage cell line. […] When LPS/IFN-γ was administered to RAW 264.7 gamma (NO−) macrophages, NO production, measured as nitrite, increased dramatically from the basal level of 0 to ≧30 μM after 24 h. To determine the effects of cranberry and blueberry juice and other phenolic compounds on NO production, different concentrations of these compounds (500, 250, 125, 63, and 16 μM) were incubated with the LPS/IFN-γ-activated macrophages (Table 7). Cell viability was assayed to exclude the possibility that the inhibitory effects of phenolic compounds were due to their cytotoxicity. The MTT assay was used for the colorless phenolic compound-treated macrophages, whereas the resazurin assay was used for cranberry and blueberry juice-treated macrophages. […]

[2] = system: TNF-α production in LPS/IFN-γ-activated RAW 264.7 gamma NO(−) macrophages; experiment: TNF-α quantification (ELISA) in supernatants of activated macrophages; assay type: cell-based, mouse; details: for TNF-α: LPS/IFN-γ control = 100; for Effect on TNF-α production, in words: over the tested concentrations
Protocol: as §1, with “The final concentrations of test compound that cells received were 16, 31, 63, 125, 250, and 500 μM, respectively.” left out
Tumour necrosis factor alpha (TNF-α) Quantification. TNF-α in cell supernatants was determined by using an OptELISA set mouse TNF-α (mono/poly) from BD PharMingen. The enzyme-linked immunosorbent assay (ELISA) was carried out as specified by the manufacturer.

[3] = Mus musculus, read-out: Inhibitory effect (decrease of NO production)

O=C(/C=C/c1ccc(O)c(O)c1)O[C@@H]1C[C@](O)(C(=O)O)C[C@@H](O)[C@H]1O [Chlorogenic acid]
Nitrite ([1]; 16 μM (μM GAE for juices)): 37.1 (0.4) μM | Nitrite ([1]; 31 μM (μM GAE for juices)): 39 (1) μM | Nitrite ([1]; 63 μM (μM GAE for juices)): 40.4 (1.64) μM | Nitrite ([1]; 125 μM (μM GAE for juices)): 41.7 (1.7) μM | Nitrite ([1]; 250 μM (μM GAE for juices)): 47.6 (1.4) μM | Nitrite ([1]; 500 μM (μM GAE for juices)): 46.6 (1.5) μM | inhibition at 16 µM ([1]; Mus musculus, RAW264.7, 16 μM (μM GAE for juices), read-out: Inhibitory effect (decrease of NO production)): -9.6% | inhibition at 31 µM ([1]; Mus musculus, RAW264.7, 31 μM (μM GAE for juices), read-out: Inhibitory effect (decrease of NO production)): -15.2% | inhibition at 63 µM [1, 3]: -19.5% | inhibition at 125 µM [1, 3]: -23.4% | inhibition at 250 µM [1, 3]: -40.8% | inhibition at 500 µM [1, 3]: -37.9% | Effect on NO production, in words [1]: showed no inhibitory effects; also recorded: induced production of NO | TNF-α ([2]; 50 μM): 105.7 (8.4) % | TNF-α ([2]; 200 μM): 99.2 (7.6) % | TNF-α ([2]; 400 μM): 126 (31.1) % | TNF-α ([2]; 500 μM): 115.6 (15.4) % | Effect on TNF-α production, in words [2]: may induce TNF-α production

O=C(O)c1cc(O)c(O)c(O)c1 [Gallic acid]
Nitrite ([1]; 16 μM (μM GAE for juices)): 36.2 (3.7) μM | Nitrite ([1]; 31 μM (μM GAE for juices)): 35.4 (2.9) μM | Nitrite ([1]; 63 μM (μM GAE for juices)): 29.3 (0.3) μM | Nitrite ([1]; 125 μM (μM GAE for juices)): 31.1 (5.9) μM | Nitrite ([1]; 250 μM (μM GAE for juices)): 25.2 (1.5) μM | Nitrite ([1]; 500 μM (μM GAE for juices)): 22.6 (0.6) μM | Inhibitory effect (decrease of NO production) ([1]; 500 μM (μM GAE for juices), 500 µM): 30.9 (1.9) % | inhibition at 63 µM [1, 3]: 10.5% | inhibition at 125 µM [1, 3]: 19% | inhibition at 250 µM [1, 3]: 23% | inhibition at 500 µM [1, 3]: 30% | Effect on NO production, in words [1]: dose-dependent | TNF-α ([2]; 50 μM): 103.4 (3.2) % | TNF-α ([2]; 100 μM): 126.2 (11) % | TNF-α ([2]; 200 μM): 160.3 (8.4) % | TNF-α ([2]; 300 μM): 257.4 (36.7) % | TNF-α ([2]; 400 μM): 213.9 (54.8) % | TNF-α ([2]; 500 μM): 183.5 (19.8) % | Effect on TNF-α production, in words [2]: may induce TNF-α production
